Read-outs that look alike come from different tables or passages of the source.
What was measured:
Assay type in all cases: physicochemical
[1] = Storage of the solid salt at ambient conditions (physical stability / hygroscopicity)
Text: One mesylate crystal form was obtained via screening. Mesylate Type A was generated via reactive crystallization (molar ratio of 1:1) in ethyl acetate/hexane (1:2, v/v) at RT.

[2] = Thermogravimetric analysis (TGA) weight loss of crystalline hits; conditions: for Speculated Form: based on TGA/DSC characterization data
Procedure: (§1) TGA data were collected using a TA Q500 and Q550 from TA Instruments. DSC was performed using a TA Q2000 from TA Instruments. DSC was calibrated with Indium reference standard and the TGA was calibrated using nickel reference standard.
(§2) All hits were further characterized by TGA and DSC, with the stoichiometry determined by ^1H NMR or HPLC/IC. Based on the characterization data in Table 2 below, most of them were considered to be anhydrates.

[3] = Stoichiometry (acid/freebase) by 1H NMR or HPLC/IC
Text: Solution NMR was collected on Bruker 500M NMR Spectrometer using DMSO-d6 and CD3OD as solvents.
Agilent 1100 HPLC was utilized to analyze the purity and stoichiometry, with detailed method listed in below.
IC method for counter-ion content measurement is listed below.
as §2

[4] = Differential scanning calorimetry (DSC) endotherms of crystalline hits; conditions: for DSC Endo. (onset, ° C.): onset temperature; for DSC Endo., peak temperature: peak temperature (footnote *)
Procedure: as §1, §2

Compound | Storage at ambient conditions ([1]; ambient conditions) | Hygroscopicity / stability under ambient conditions, as suggested by the gel conversion ([1]; ambient conditions, inferred from conversion to gel) | Physical stability of the sample after storage at ambient conditions ([1]; solid, storage at ambient conditions) | Speculated Form [2] | TGA Wt. Loss (%) ([2]; up to 130° C.) | Stoichiometry (acid/base) [3] | DSC Endo. (onset, ° C.) [4] [°C] | DSC Endo., peak temperature [4] [°C] | TGA Wt. Loss (%) [2]
CCCCc1nc(-c2ccc(OCCCN(CC)CC)cc2)cn1-c1ccc(Oc2ccc(Cl)cc2)cc1.CS(=O)(=O)O [Mesylate Type A] | + | highly hygroscopic and unstable | converted to gel | – | – | – | – | – | –
CCCCc1nc(-c2ccc(OCCCN(CC)CC)cc2)cn1-c1ccc(Oc2ccc(Cl)cc2)cc1.O=C(O)[C@@H](O)[C@H](O)[C@H](O)[C@@H](O)C(=O)O [Galactarate Type A] | – | – | – | Anhydrate | 0.6 up to % | 0.98 | 158.4 | 106.3 | –
CCCCc1nc(-c2ccc(OCCCN(CC)CC)cc2)cn1-c1ccc(Oc2ccc(Cl)cc2)cc1.O=C(O)/C=C\C(=O)O [Maleate Type A] | – | – | – | Anhydrate | – | 0.97 | 120.2 | – | negligible
CCCCc1nc(-c2ccc(OCCCN(CC)CC)cc2)cn1-c1ccc(Oc2ccc(Cl)cc2)cc1.O=C(O)C(=O)O [Oxalate Type A] | – | – | – | Anhydrate | – | 1.12 | 109.5 | – | negligible
CCCCc1nc(-c2ccc(OCCCN(CC)CC)cc2)cn1-c1ccc(Oc2ccc(Cl)cc2)cc1.O=C(O)CNC(=O)c1ccccc1 [Hippurate Type A] | – | – | – | Anhydrate | – | 0.98 | 72.7 | 44.3 | negligible
CCCCc1nc(-c2ccc(OCCCN(CC)CC)cc2)cn1-c1ccc(Oc2ccc(Cl)cc2)cc1.O=C(O)/C=C/C(=O)O [Fumarate Type A] | – | – | – | Anhydrate | – | 1.00 | 115.0 | – | negligible
CCCCc1nc(-c2ccc(OCCCN(CC)CC)cc2)cn1-c1ccc(Oc2ccc(Cl)cc2)cc1.COc1cc(C(=O)O)ccc1O [Vanillate Type A] | – | – | – | Anhydrate | – | 1.04 | 99.6 | – | negligible

Reference: patent publication US11883383B2, “Pharmaceutically acceptable salts of [3-(4- {2-butyl-1-[4-(4-chloro-phenoxy)-phenyl]-1H-imidazol-4-yl} -phenoxy)-propyl]-diethyl-amine” (vTv Therapeutics LLC, priority 2018, dated 2024)
